The values below come from patent US10166216B2 (Rigel Pharmaceuticals, Inc., priority 2006, dated 2019).

Sequence of Axl (P30530 26-894): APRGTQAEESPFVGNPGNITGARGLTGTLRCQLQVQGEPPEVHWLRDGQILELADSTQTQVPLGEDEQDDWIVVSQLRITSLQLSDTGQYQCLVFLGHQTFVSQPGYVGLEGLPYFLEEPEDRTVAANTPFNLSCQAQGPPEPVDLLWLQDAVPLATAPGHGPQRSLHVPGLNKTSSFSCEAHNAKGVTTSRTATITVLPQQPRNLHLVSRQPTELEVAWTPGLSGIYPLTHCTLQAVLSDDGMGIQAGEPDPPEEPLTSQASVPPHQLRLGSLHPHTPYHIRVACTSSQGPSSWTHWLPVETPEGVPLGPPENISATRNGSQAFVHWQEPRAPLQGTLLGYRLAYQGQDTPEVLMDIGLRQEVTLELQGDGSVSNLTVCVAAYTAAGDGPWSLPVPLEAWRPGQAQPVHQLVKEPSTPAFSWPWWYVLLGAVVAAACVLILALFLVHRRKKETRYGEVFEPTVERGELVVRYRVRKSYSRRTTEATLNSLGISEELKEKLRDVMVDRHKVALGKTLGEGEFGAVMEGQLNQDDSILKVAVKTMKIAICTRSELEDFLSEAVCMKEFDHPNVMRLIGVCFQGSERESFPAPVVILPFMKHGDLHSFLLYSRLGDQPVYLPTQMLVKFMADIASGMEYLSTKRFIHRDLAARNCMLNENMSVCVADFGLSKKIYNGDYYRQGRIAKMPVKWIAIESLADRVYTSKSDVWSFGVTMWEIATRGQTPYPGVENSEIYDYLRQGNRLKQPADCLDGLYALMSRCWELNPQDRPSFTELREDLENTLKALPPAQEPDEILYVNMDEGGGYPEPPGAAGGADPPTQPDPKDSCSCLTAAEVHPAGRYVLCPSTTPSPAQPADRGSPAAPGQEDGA

The first assay concerns the target Axl (Homo sapiens (Human), UniProt P30530). Kind of assay: Phospho-Akt in-cell Western assay (Axl-antibody cross-linking stimulation). It is filed as cell-based. Conditions: inhibition of Axl activity, Hela cells, phospho-Akt readout; Table 5, formula (Ia3). An outline of the steps:
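HeLa cells on poly-L-lysine, starved 24 hrs with Axl/Fc, pre-treated with compound 1 hr at 37° C., then stimulated 5 min with Axl primary/secondary antibody cluster. Fixed cells probed for phospho-Akt by chemiluminescent in-cell Western; signal normalized to crystal violet cell number.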
Consider `COc1ccc(Nc2nc(N)n(-c3ccccn3)n2)cc1` [Compound 142, N^3-(4-methoxyphenyl)-1-(pyridin-2-yl)-1H-1,2,4-triazole-3,5-diamine], for which the IC50 – broadly, the concentration that gives 50% inhibition – was above 20000 nM.

For `CCOC(=O)c1ccc(Nc2nc(N)n(-c3ccnc(Cl)c3)n2)cc1` [Compound 143, ethyl 4-(5-amino-1-(2-chloropyridin-4-yl)-1H-1,2,4-triazol-3-ylamino)benzoate], the IC50 was above 20000 nM.

`CC(=O)c1ccc(Nc2nc(N)n(-c3cnc4ccccc4n3)n2)cc1` [Compound 144, 1-(4-(5-amino-1-(quinoxalin-2-yl)-1H-1,2,4-triazol-3-ylamino)phenyl)ethanone] returned an IC50 above 20000 nM.

For the compound `Nc1nc(Nc2ccc(C(=O)O)cc2)nn1-c1ccnc(N2CCC[C@H]2CN2CCCC2)c1` [Compound 146, (S)-4-(5-amino-1-(2-(2-(pyrrolidin-1-ylmethyl)pyrrolidin-1-yl)pyridin-4-yl)-1H-1,2,4-triazol-3-ylamino) benzoic acid], the IC50 is above 20000 nM.

`CC(=O)c1ccc(Nc2nc(N)n(-c3ccccc3F)n2)cc1` [Compound 147, 1-(4-(5-amino-1-(2-fluorophenyl)-1H-1,2,4-triazol-3-ylamino)phenyl)ethanone] displayed an IC50 above 20000 nM.

With `Nc1nc(Nc2cc(F)c(F)c(F)c2)nn1-c1ccccn1` [Compound 149, 1-(pyridin-2-yl)-N^3-(3,4,5-trifluorophenyl)-1H-1,2,4-triazole-3,5-diamine], the 50% inhibitory concentration (IC50) was above 20000 nM.

On to `Nc1nc(Nc2cccc(O)c2)nn1-c1ccccn1` [Compound 150, 3-(5-amino-1-(pyridin-2-yl)-1H-1,2,4-triazol-3-ylamino)phenol], for which the concentration for half-maximal inhibition (IC50) is above 20000 nM.

In turn, `Nc1nc(Nc2ccc(CCC(=O)N3CCCC3)cc2)nn1-c1cnc2ccccc2n1` [Compound 152, 3-(4-(5-amino-1-(quinoxalin-2-yl)-1H-1,2,4-triazol-3-ylamino)phenyl)-1-(pyrrolidin-1-yl)propan-1-one] registered an IC50 above 20000 nM.

Compound `COc1cc2ncnc(-n3nc(Nc4ccc(OC5CCCN(C)C5)cc4)nc3N)c2cc1OC` (centres unmarked) [Compound 153, 1-(6,7-dimethoxyquinazolin-4-yl)-N^3-(4-(1-methylpiperidin-3-yloxy)phenyl)-1H-1,2,4-triazole-3,5-diamine] gave an IC50 below 1000 nM.

As for `CN1CCCC(Oc2ccc(Nc3nc(N)n(-c4nccc5ccccc45)n3)cc2)C1` (centres unmarked) [Compound 155, 1-(isoquinolin-1-yl)-N^3-(4-(1-methylpiperidin-3-yloxy)phenyl)-1H-1,2,4-triazole-3,5-diamine], the IC50 was below 1000 nM.

`COc1cc2ncnc(-n3nc(Nc4ccc(N5CCOCC5)cc4)nc3N)c2cc1OC` [Compound 158, 1-(6,7-dimethoxyquinazolin-4-yl)-N^3-(4-morpholinophenyl)-1H-1,2,4-triazole-3,5-diamine] came in with an IC50 below 1000 nM.

Turning to `COc1cc2ncnc(-n3nc(Nc4ccc(N5CCOCC5)c(Cl)c4)nc3N)c2cc1OC` [Compound 159, N^3-(3-chloro-4-morpholinophenyl)-1-(6,7-dimethoxyquinazolin-4-yl)-1H-1,2,4-triazole-3,5-diamine], the IC50 is below 1000 nM.

`Nc1nc(Nc2ccc(N3CCOCC3)c(F)c2)nn1-c1nccc2ccccc12` [Compound 161, N^3-(3-fluoro-4-morpholinophenyl)-1-(isoquinolin-1-yl)-1H-1,2,4-triazole-3,5-diamine] registered an IC50 below 1000 nM.

`COc1cc2ncnc(-n3nc(Nc4ccc(N5CCOCC5)c(F)c4)nc3N)c2cc1OC` [Compound 162, 1-(6,7-dimethoxyquinazolin-4-yl)-N^3-(3-fluoro-4-morpholinophenyl)-1H-1,2,4-triazole-3,5-diamine] registered an IC50 below 1000 nM.

Turning to `CN1CCN(Cc2ccc(Nc3nc(N)n(-c4nccc5ccccc45)n3)cc2)CC1` [Compound 163, 1-(isoquinolin-1-yl)-N^3-(4-((4-methylpiperazin-1-yl)methyl)phenyl)-1H-1,2,4-triazole-3,5-diamine], the IC50 is below 1000 nM.

With `CN(C)[C@@H]1CCN(c2ccc(Nc3nc(N)n(-c4nccc5ccccc45)n3)cc2)C1` [Compound 164, N^3-(4-((R)-3-(dimethylamino)pyrrolidin-1-yl)phenyl)-1-(isoquinolin-1-yl)-1H-1,2,4-triazole-3,5-diamine], the IC50 was below 1000 nM.

`CN(C)[C@H]1CCN(c2ccc(Nc3nc(N)n(-c4nccc5ccccc45)n3)cc2)C1` [Compound 165, N^3-(4-((S)-3-(dimethylamino)pyrrolidin-1-yl)phenyl)-1-(isoquinolin-1-yl)-1H-1,2,4-triazole-3,5-diamine] yielded an IC50 below 1000 nM.

As for `Nc1nc(Nc2ccc(-c3cnco3)cc2)nn1-c1nccc2ccccc12` [Compound 166, 1-(isoquinolin-1-yl)-N^3-(4-(oxazol-5-yl)phenyl)-1H-1,2,4-triazole-3,5-diamine], the IC50 is above 20000 nM.

`CN1CCC(c2ccc(Nc3nc(N)n(-c4nccc5ccccc45)n3)cc2)CC1` [Compound 167, 1-(isoquinolin-1-yl)-N^3-(4-(1-methylpiperidin-4-yl)phenyl)-1H-1,2,4-triazole-3,5-diamine] yielded an IC50 below 1000 nM.

`COc1cc2ncnc(-n3nc(Nc4ccc(C5CCN(C)CC5)cc4)nc3N)c2cc1OC` [Compound 168, 1-(6,7-dimethoxyquinazolin-4-yl)-N^3-(4-(1-methylpiperidin-4-yl)phenyl)-1H-1,2,4-triazole-3,5-diamine] had an IC50 below 1000 nM.

`COc1cc2c(-n3nc(Nc4ccc(C5CCN(C)CC5)cc4)nc3N)ncnc2cc1O` [Compound 169, 4-(5-amino-3-(4-(1-methylpiperidin-4-yl)phenylamino)-1H-1,2,4-triazol-1-yl)-6-methoxyquinazolin-7-ol] yielded an IC50 below 1000 nM.

Compound `COc1cc2ncnc(-n3nc(Nc4ccc(N5CC[C@H](N(C)C)C5)cc4)nc3N)c2cc1OC` [Compound 171, 1-(6,7-dimethoxyquinazolin-4-yl)-N^3-(4-((S)-3-(dimethylamino)pyrrolidin-1-yl)phenyl)-1H-1,2,4-triazole-3,5-diamine] displayed an IC50 below 1000 nM.

Still in this assay, the particulars now being: inhibition of Axl activity, Hela cells, phospho-Akt readout; Table 6, formula (Ib3).
In turn, `Nc1nc(Nc2ccc(N3CCOCC3)cc2)n(-c2nccc3ccccc23)n1` [Compound 157, 1-(isoquinolin-1-yl)-N^5-(4-morpholinophenyl)-1H-1,2,4-triazole-3,5-diamine] gave an IC50 above 20000 nM.

Still in this assay, the particulars now being: inhibition of Axl activity, phospho-Akt in-cell Western assay.
The compound `Cc1nc(-n2nc(Nc3ccc(N4CCN(C5CC6CCC5C6)CC4)cc3)nc2N)c2c(C)c(C)sc2n1` (centres unmarked) [Compound 137, N^3-(4-(4-(bicyclo[2.2.1]heptan-2-yl)piperazin-1-yl)phenyl)-1-(2,5,6-trimethylthieno[2,3-d]pyrimidin-4-yl)-1H-1,2,4-triazole-3,5-diamine] registered an IC50 of 1000 to 10000 nM.

`Cc1sc2ncnc(-n3nc(Nc4ccc(N5CCN(C6CC7CCC6C7)CC5)cc4)nc3N)c2c1C` (centres unmarked) [Compound 138, N^3-(4-(4-(bicyclo[2.2.1]heptan-2-yl)piperazin-1-yl)phenyl)-1-(5,6-dimethylthieno[2,3-d]pyrimidin-4-yl)-1H-1,2,4-triazole-3,5-diamine] showed an IC50 of 1000 to 10000 nM.

Turning to `Cc1csc2c(-n3nc(Nc4ccc(N5CCN(C6CC7CCC6C7)CC5)c(F)c4)nc3N)nc(Cl)nc12` (centres unmarked) [Compound 140, N^3-(4-(4-(bicyclo[2.2.1]heptan-2-yl)piperazin-1-yl)-3-fluorophenyl)-1-(2-chloro-7-methylthieno[3,2-d]pyrimidin-4-yl)-1H-1,2,4-triazole-3,5-diamine], the half-maximal inhibitory concentration (IC50) lay within 1000 to 10000 nM.
